Columns and labels:
[1] = tested on: palmer amaranth, waterhemp, kochia, common ragweed and marestail; assay: Example 2 pot test, spray the day before sowing corns: herbicidal effects on weeds; assay type: in vivo; conditions: 25 or 50 g per hectare; applied on day of weed sowing, corns sown next day; 21 days after sowing corns
From the text: (§1) The evaluation of the herbicidal effect and crop injury is classified into 0 to 100, where the numeral “0” indicates no or little difference in the state of germination or growth of weeds or corn under test at the time of examination as comparison with untreated weeds or corn, respectively and the numeral “100” indicates the complete death of weeds or corn under test or the complete inhibition of their germination or growth of weeds or corn under test.
(§2) A pot is filled with a soil, and then Palmer amaranth, waterhemp, kochia, common ragweed and marestail are sown thereto. On the same day, trifludimoxazin spray liquid (prepared by diluting trifludimoxazin formulation (an aqueous suspension concentrate containing 500 g/L of trifludimoxazin) with water) is uniformly applied onto the pot using sprayer at the amount of 200 L per hectare so that the application rate of trifludimoxazin may be 25 or 50 g per hectare. On the next day, field corn, popcorn, sweet corn, and waxy corn are sown. 21 days after sowing corns, herbicidal effects and injuries on various corns are investigated.

[2] = tested on: field corn, popcorn, sweet corn, and waxy corn; assay: Example 2 pot test, spray the day before sowing corns: injuries on various corns; assay type: in vivo, Zea mays; conditions: 25 or 50 g per hectare; applied the day before sowing corns; 21 days after sowing corns
From the text: as §1, §2

[3] = tested on: popcorn; assay: Pot test, soil spray after sowing: crop injury on popcorn; assay type: in vivo, Zea mays var. everta
From the text: as §1
(§3) Three varieties of field corn, two varieties of popcorn, two varieties of sweet corn, two varieties of waxy corn, palmer amaranth, kochia and large crabgrass were sown to a pot filled with a soil. On the next day, a trifludimoxazin spray liquid (prepared by diluting an emuslfiable concentrate of trifludimoxazin with water) was uniformly sprayed onto the pot at the amount of 200 L per hectare so that the application rate of trifludimoxazin might be 50 g per hectare. 12 days after treatment, herbicidal effects on weeds and injury on corns were investigated. As a result, the herbicidal effect on each of the three weeds was 100.
as §3, with “Four” for “Three”, “sweet” for “sweet corn, two varieties of waxy”, “25” for “50”, “13” for “12”

[4] = tested on: waxy corn; assay: Pot test, soil spray after sowing: crop injury on waxy corn; assay type: in vivo, Zea mays var. ceratina; conditions: 50 g/ha, 12 days after treatment
From the text: as §1, §3

[5] = tested on: sweet corn; assay: Pot test, soil spray after sowing: crop injury on sweet corn; assay type: in vivo, Zea mays var. saccharata
From the text: as §1, §3
as §3, with “Four” for “Three”, “sweet” for “sweet corn, two varieties of waxy”, “25” for “50”, “13” for “12”

[6] = tested on: field corn, popcorn, sweet corn, waxy corn; assay: Example 1 pot test, spray two days after sowing: injuries on various corns; assay type: in vivo, Zea mays; conditions: 25 or 50 g per hectare; applied two days after sowing; 21 days after the treatment
From the text: as §1
as §2, with “field corn, popcorn, sweet corn, waxy corn, palmer” for “Palmer”, “Two days later,” for “On the same day,”, “hectare.” for “hectare. On the next day, field corn, popcorn, sweet corn, and waxy corn are sown.”, “the treatment,” for “sowing corns,”

[7] = tested on: large crabgrass; assay: Pot test, soil spray after sowing: herbicidal effect on large crabgrass; assay type: in vivo, Digitaria sanguinalis
From the text: as §1, §3
(§4) Four varieties of field corn, two varieties of popcorn, two varieties of sweet corn, palmer amaranth, kochia and large crabgrass were sown to a pot filled with a soil. […]

[8] = tested on: kochia; assay: Pot test, soil spray after sowing: herbicidal effect on kochia; assay type: in vivo, Kochia scoparia
From the text: as §1, §3, §4

[9] = tested on: palmer amaranth, waterhemp, kochia, common ragweed and marestail; assay: Example 1 pot test, spray two days after sowing: herbicidal effects on weeds; assay type: in vivo; conditions: 25 or 50 g per hectare; applied two days after sowing; 21 days after the treatment
From the text: as §1
as §2, with “field corn, popcorn, sweet corn, waxy corn, palmer” for “Palmer”, “Two days later,” for “On the same day,”, “hectare.” for “hectare. On the next day, field corn, popcorn, sweet corn, and waxy corn are sown.”, “the treatment,” for “sowing corns,”

[10] = tested on: palmer amaranth; assay: Pot test, soil spray after sowing: herbicidal effect on palmer amaranth; assay type: in vivo, Amaranthus palmeri
From the text: as §1, §3, §4

[11] = tested on: field corn; assay: Pot test, soil spray after sowing: crop injury on field corn; assay type: in vivo, Zea mays var. indentata and/or Zea mays var. indurata
From the text: as §1, §3
as §3, with “Four” for “Three”, “sweet” for “sweet corn, two varieties of waxy”, “25” for “50”, “13” for “12”

[12] = 25 g per hectare, 13 days after treatment
[13] = 50 g per hectare, 12 days after treatment

C#CCN1C(=O)C(F)(F)Oc2cc(F)c(-n3c(=O)n(C)c(=S)n(C)c3=O)cc21 [trifludimoxazin]
herbicidal effects on all weeds [1]: High herbicidal effects | injury on field corn compared with popcorn, sweet corn and waxy corn [2]: less than those on popcorn, sweet corn and waxy corn | Injury score on corn (0 to 100) ([3]; Popcorn Maru-pop, 25 g/ha, 13 days after treatment): 20 | Injury score on corn (0 to 100) ([3]; Popcorn Maru-pop, 50 g/ha, 12 days after treatment): 50 | Injury score on corn (0 to 100) ([3]; Popcorn Yuki-pop, 25 g/ha, 13 days after treatment): 20 | Injury score on corn (0 to 100) ([3]; Popcorn Yuki-pop, 50 g/ha, 12 days after treatment): 40 | Injury score on corn (0 to 100) ([4]; Waxy corn Ki-mochi): 30 | Injury score on corn (0 to 100) ([4]; Waxy corn Shiro-mochi): 40 | Injury score on corn (0 to 100) ([5]; Sweet corn Ohisama, 25 g/ha, 13 days after treatment): 20 | Injury score on corn (0 to 100) ([5]; Sweet corn Ohisama, 50 g/ha, 12 days after treatment): 40 | Injury score on corn (0 to 100) ([5]; Sweet corn Rancher 82, 25 g/ha, 13 days after treatment): 30 | Injury score on corn (0 to 100) ([5]; Sweet corn Rancher 82, 50 g/ha, 12 days after treatment): 30 | injury on field corn compared with popcorn, sweet corn and waxy corn [6]: less than those on popcorn, sweet corn and waxy corn | herbicidal effect (0 to 100) [7, 12]: 100 | herbicidal effect (0 to 100) [7, 13]: 100 | herbicidal effect (0 to 100) [8, 12]: 100 | herbicidal effect (0 to 100) [8, 13]: 100 | herbicidal effects on all weeds [9]: High herbicidal effects | herbicidal effect (0 to 100) [10, 12]: 100 | herbicidal effect (0 to 100) [10, 13]: 100 | Injury score on corn (0 to 100) ([11]; Field corn DKC5632, 25 g/ha, 13 days after treatment): 0 | Injury score on corn (0 to 100) ([11]; Field corn DKC5632, 50 g/ha, 12 days after treatment): 10 | Injury score on corn (0 to 100) ([11]; Field corn Koshu, 25 g/ha, 13 days after treatment): 0 | Injury score on corn (0 to 100) ([11]; Field corn Koshu, 50 g/ha, 12 days after treatment): 5 | Injury score on corn (0 to 100) ([11]; Field corn MAS40F, 25 g/ha, 13 days after treatment): 5 | Injury score on corn (0 to 100) ([11]; Field corn Pioneer 2088, 25 g/ha, 13 days after treatment): 0 | Injury score on corn (0 to 100) ([11]; Field corn Pioneer 2088, 50 g/ha, 12 days after treatment): 5

From patent US11096390B2, “Method of controlling weeds in a cultivation area of field corn” (SUMITOMO CHEMICAL COMPANY, LIMITED, priority 2019, dated 2021)
